Patent US20250221410A1, “SUBSTITUTED 2-C-AZINES AND SALTS THEREOF, AND USE THEREOF AS HERBICIDAL ACTIVE SUBSTANCES” (BAYER AKTIENGESELLSCHAFT, priority 2022, published 2025)

Assays:
Format in all cases: in vivo
[1] = system: ABUTH: Abutilon theophrasti; assay: Post-emergence herbicidal efficacy at 1280 g/ha, ABUTH; conditions: rated visually after about 3 weeks vs untreated controls, 100% = plants have died, 0% = like control plants
Outline: (§1)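 Greenhouse post-emergence spray: one-leaf stage, 2–3 wk after sowing; WP/EC as aqueous suspension/emulsion + 0.5% additive, 600 L/ha water. Visual % activity vs untreated at ~3 wk; 100% = dead, 0% = as control.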

[2] = system: AMARE: Amaranthus retroflexus; assay: Post-emergence herbicidal efficacy at 1280 g/ha, AMARE; conditions: rated visually after about 3 weeks vs untreated controls, 100% = plants have died, 0% = like control plants
Outline: as §1

[3] = system: DIGSA: Digitaria sanguinalis; assay: Post-emergence herbicidal efficacy at 1280 g/ha, DIGSA; conditions: rated visually after about 3 weeks vs untreated controls, 100% = plants have died, 0% = like control plants
Experimental: (§2) Seeds of mono- and dicotyledonous weed plants were placed in plastic pots in sandy loam soil (doubly sown with in each case one species of mono- or dicotyledonous weed plants per pot), covered with soil and cultivated in a greenhouse under controlled growth conditions. 2 to 3 weeks after sowing, the test plants were treated at the one-leaf stage. The compounds of the invention, formulated in the form of wettable powders (WP) or as emulsion concentrates (EC), were applied to the green parts of the plants as aqueous suspension or emulsion with addition of 0.5% additive at a water application rate equivalent to 600 litres per hectare. After the test plants had been kept in the greenhouse under optimum growth conditions for about 3 weeks, the activity of the preparations was rated visually in comparison to untreated controls. For example, 100% activity=the plants have died, 0% activity=like control plants. Tables A1 to A12 below show the effects of selected compounds of the general formula (I) according to Table 1 on various harmful plants and at an application rate corresponding to 1280 g/ha, which were obtained by the trial procedure specified above.

[4] = system: ECHCG: Echinochloa crus-galli; assay: Post-emergence herbicidal efficacy at 1280 g/ha, ECHCG; conditions: rated visually after about 3 weeks vs untreated controls, 100% = plants have died, 0% = like control plants
Experimental: as §2

[5] = system: KCHSC: Kochia scoparia; assay: Post-emergence herbicidal efficacy at 1280 g/ha, KCHSC; conditions: visual rating about 3 weeks after treatment vs untreated controls
Outline: as §1

[6] = system: POAAN: Poa annua; assay: Post-emergence herbicidal efficacy at 1280 g/ha, POAAN; conditions: visual rating about 3 weeks after treatment vs untreated controls
Outline: as §1

[7] = system: SETVI: Setaria viridis; assay: Post-emergence herbicidal efficacy at 1280 g/ha, SETVI; conditions: visual rating about 3 weeks after treatment vs untreated controls
Experimental: as §2

[8] = system: STEME: Stellaria media; assay: Post-emergence herbicidal efficacy at 1280 g/ha, STEME; conditions: visual rating about 3 weeks after treatment vs untreated controls
Outline: as §1

[9] = system: VERPE: Veronica persica; assay: Post-emergence herbicidal efficacy at 1280 g/ha, VERPE; conditions: visual rating about 3 weeks after treatment vs untreated controls
Outline: as §1

[10] = system: ABUTH: Abutilon theophrasti; assay: Pre-emergence herbicide efficacy at 1280 g/ha, ABUTH; conditions: visual scoring after about 3 weeks vs untreated controls
Outline: (§3)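 Visual scoring after about 3 weeks in the greenhouse, as percent activity relative to untreated pots, where 0% matches controls and 100% means dead plants. Treatment was pre-emergence: WP or EC formulations sprayed onto soil covering the sown seeds, 600 L/ha water plus 0.5% additive.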

[11] = system: AMARE: Amaranthus retroflexus; assay: Pre-emergence herbicide efficacy at 1280 g/ha, AMARE; conditions: visual scoring after about 3 weeks vs untreated controls
Outline: as §3

[12] = system: DIGSA: Digitaria sanguinalis; assay: Pre-emergence herbicide efficacy at 1280 g/ha, DIGSA; conditions: visual scoring after about 3 weeks vs untreated controls
Outline: as §3

[13] = system: ECHCG: Echinochloa crus-galli; assay: Pre-emergence herbicide efficacy at 1280 g/ha, ECHCG; conditions: visual scoring after about 3 weeks vs untreated controls
Outline: as §3

[14] = system: KCHSC: Kochia scoparia; assay: Pre-emergence herbicide efficacy at 1280 g/ha, KCHSC; conditions: visual scoring after about 3 weeks vs untreated controls
Text: (§4) Seeds of mono- and dicotyledonous weed plants were placed in plastic pots in sandy loam soil (doubly sown with one species each of mono- or dicotyledonous weed plants per pot) and covered with soil. The compounds of the invention, formulated in the form of wettable powders (WP) or as emulsion concentrates (EC), were then applied to the surface of the covering soil as aqueous suspension or emulsion with addition of 0.5% additive at a water application rate of 600 litres per hectare (converted). After the treatment, the pots were placed in a greenhouse and kept under good growth conditions for the test plants. After about 3 weeks, the efficacy of the preparations was scored visually in comparison with untreated controls as percentages. For example, 100% activity=the plants have died, 0% activity=like control plants. Tables C1 to C12 below show the effects of selected compounds of the general formula (I) according to Table 1 on various harmful plants and at an application rate corresponding to 1280 g/ha, which were obtained by the trial procedure specified above.

[15] = system: POAAN: Poa annua; assay: Pre-emergence herbicide efficacy at 1280 g/ha, POAAN; conditions: visual scoring after about 3 weeks vs untreated controls
Outline: as §3

[16] = system: SETVI: Setaria viridis; assay: Pre-emergence herbicide efficacy at 1280 g/ha, SETVI; conditions: visual scoring vs untreated controls
Outline: as §3

[17] = system: STEME: Stellaria media; assay: Pre-emergence herbicide efficacy at 1280 g/ha, STEME; conditions: visual scoring vs untreated controls
Outline: as §3

[18] = system: VERPE: Veronica persica; assay: Pre-emergence herbicide efficacy at 1280 g/ha, VERPE; conditions: visual scoring vs untreated controls
Text: as §4

Row | SMILES | Post-emergence efficacy at 1280 g/ha against ABUTH in % [1] [%] | Post-emergence efficacy at 1280 g/ha against AMARE in % [2] [%] | Post-emergence efficacy at 1280 g/ha against DIGSA in % [3] [%] | Post-emergence efficacy at 1280 g/ha against ECHCG in % [4] [%] | Post-emergence efficacy against KCHSC [5] [%] | Post-emergence efficacy against POAAN [6] [%] | Post-emergence efficacy against SETVI [7] [%] | Post-emergence efficacy against STEME [8] [%] | Post-emergence efficacy against VERPE [9] [%] | Pre-emergence efficacy against ABUTH [10] [%] | Pre-emergence efficacy against AMARE [11] [%] | Pre-emergence efficacy against DIGSA [12] [%] | Pre-emergence efficacy against ECHCG [13] [%] | Pre-emergence efficacy against KCHSC [14] [%] | Pre-emergence efficacy against POAAN [15] [%] | Pre-emergence efficacy against SETVI in % [16] [%] | Pre-emergence efficacy against STEME in % [17] [%] | Pre-emergence efficacy against VERPE in % [18] [%]
1 | Fc1ccc(Cc2ccccc2Cc2ncc(Cl)cn2)cc1 [Example 1-23] | 100 | 100 | 100 | 100 | 90 | 100 | 90 | 90 | 100 | 100 | 100 | 100 | 100 | 90 | 90 | 100 | 100 | 100
2 | Fc1ccc(-c2ccccc2Cc2ncc(Cl)cn2)cc1F [Example 1-26] | 100 | 100 | 90 | 90 | 100 | 90 | 90 | 100 | 100 | 90 | 100 | 100 | 90 | 100 | 100 | 90 |  | 
3 | Fc1cnc(Cc2ccccc2-c2ccc(F)c(F)c2)nc1 [Example 1-27] | 90 | 100 | 90 |  | 90 | 90 | 90 | 90 | 90 | 100 | 100 | 100 | 90 | 90 | 90 | 100 |  | 100
4 | Fc1ccc(Oc2c(Br)cccc2Cc2ncc(Cl)cn2)cc1 [Example 1-37] | 100 | 100 | 90 | 100 | 100 | 100 |  | 90 | 100 |  | 100 | 100 | 90 |  | 90 | 100 | 90 | 
5 | N#Cc1cccc(Cc2ncc(Cl)cn2)c1Oc1ccc(F)cc1 [Example 1-38] | 100 | 100 | 90 | 100 | 100 | 90 | 90 | 100 | 100 |  | 100 | 100 | 100 |  | 100 | 100 | 100 | 100
6 | Fc1cnc(Cc2ccccc2Oc2ncc(Cl)cc2F)nc1 [Example 1-90] | 90 | 100 | 90 |  | 100 | 100 |  | 90 | 100 | 100 | 100 | 100 | 100 | 100 | 100 | 90 | 90 | 100
7 | Fc1ccc(Sc2ccccc2Cc2ncc(Cl)cn2)cc1 [Example 1-99] | 90 | 100 | 90 | 100 | 100 | 100 | 90 | 100 | 90 | 90 | 100 | 100 | 100 |  | 100 | 100 | 100 | 
